How the values were obtained:
[1] = test system: allergen-induced airway inflammation; test: Mouse model of asthma (OVA), inhalation, long-term exposure challenge (11 weeks); type: in vivo, mice; conditions: aerosol, long term allergen exposure (11 weeks)
Procedure: In order to study the modulation of airway inflammation by intraperitoneal injection of Compound I, mice were sensitized with 10 μg ovalbumin alumin-adsorbed (aluminject, perbio, Erembodegem, Belgium) injected intraperitonealy at days 0 and 7 and were subsequently exposed to OVA 1% or PBS aerosols for 30 minutes from day 21 to 24. Intraperitoneal injections were performed 30 min before OVA inhalations. The different injected formulations were: cremophor 10%-DMSO 10%-PBS 80%- Compound I30 mg/kg (suspension); cremophor 10%-DMSO 10%-PBS 80%- Compound I3.75 mg/kg (solution); HPβCD 200 mM Compound I 7.5 mg/kg (solution); HPβCD 200 mM. All results were compared to mice sensitized and exposed to PBS and OVA treated with PBS injected intraperitonealy. In order to study the modulation of airway inflammation by inhaled Compound I, mice were sensitized as described previously. Two protocols referred to as short exposure challenge and long-term exposure challenge were used. In the short exposure challenge, mice were exposed to aerosols of Compound I-complex at concentrations of 0.03 and 0.3 mg/ml of active compound in aqueous solution of from day 21 to 27 during 30 min in a Plexiglas exposure chamber (30×20×15 cm). Mice were exposed to OVA aerosols 30 minutes after the Compound I inhalation from day 23 to 27. […]
Twenty-four hours after the last allergen exposure, the bronchial hyper responsiveness was determined by measuring the Penh using a barometric plethysmograph as proposed by Hamelmann, E., et al., Am. […] The Penh was measured at baseline and 5 min after the inhalation of increasing doses (25, 50, 75 and 100 mM) of methacholine (Mch).
(§1) Immediately after the assessment of airway responsiveness, mice were sacrificed and 1 ml of PBS free of ionised calcium and magnesium but supplemented with 0.05 mM sodium EDTA was instilled 4 times via a tracheal cannula and recovered by gentle manual aspiration. […] A value from 0 to 3 per criteria was adjudged to each tissue section scored. […]

[2] = test system: allergen-induced airway inflammation and bronchial hyperresponsiveness; test: Mouse model of asthma (OVA), inhalation, short exposure challenge; type: in vivo, mice; conditions: aerosol, short-term exposure; Compound I 0.03 and 0.3 mg/ml, fluticasone 1 mg/ml; vs placebo, p<0.0001
Procedure: In order to study the modulation of airway inflammation by intraperitoneal injection of Compound I, mice were sensitized with 10 μg ovalbumin alumin-adsorbed (aluminject, perbio, Erembodegem, Belgium) injected intraperitonealy at days 0 and 7 and were subsequently exposed to OVA 1% or PBS aerosols for 30 minutes from day 21 to 24. Intraperitoneal injections were performed 30 min before OVA inhalations. The different injected formulations were: cremophor 10%-DMSO 10%-PBS 80%- Compound I30 mg/kg (suspension); cremophor 10%-DMSO 10%-PBS 80%- Compound I3.75 mg/kg (solution); HPβCD 200 mM Compound I 7.5 mg/kg (solution); HPβCD 200 mM. All results were compared to mice sensitized and exposed to PBS and OVA treated with PBS injected intraperitonealy. In order to study the modulation of airway inflammation by inhaled Compound I, mice were sensitized as described previously. Two protocols referred to as short exposure challenge and long-term exposure challenge were used. In the short exposure challenge, mice were exposed to aerosols of Compound I-complex at concentrations of 0.03 and 0.3 mg/ml of active compound in aqueous solution of from day 21 to 27 during 30 min in a Plexiglas exposure chamber (30×20×15 cm). Mice were exposed to OVA aerosols 30 minutes after the Compound I inhalation from day 23 to 27. In the so called long-term inhalation challenge, mice were exposed to aerosols of Compound Iat concentrations of 0.03 and 0.3 mg/ml complexed with HPβCD in an aqueous solution during 30 min five days odd weeks and to OVA aerosols 3 days odd weeks for 11 weeks. No inhalations were performed during even weeks.
The aerosol were produced by using an ultrasonic nebuliser SYSTAM (Systeme Assistance Medical, Le Ledat, France), the vibration frequency of which is 2.4 MHz with variable vibration intensity and ventilation levels. Vibration intensity was fixed in position 6 and the ventilation level was 25(ν1/2)1/min.
Twenty-four hours after the last allergen exposure, the bronchial hyper responsiveness was determined by measuring the Penh using a barometric plethysmograph as proposed by Hamelmann, E., et al., Am. J Respir. Crit. Care Med. 156 (1997) 766-775). The Penh was measured at baseline and 5 min after the inhalation of increasing doses (25, 50, 75 and 100 mM) of methacholine (Mch).
as §1, with “aspiration. The recovered bronchoalveolar lavage fluid (BAL) was centrifuged (1800 rpm for 10 min at 4° C.).” for “aspiration.”

Human MMP-9 = Human MMP-9 (Homo sapiens, UniProt P14780); test: MMP enzymatic activity, modified fluorescence assay (DNP-substrate); type: biochemical; conditions: read-out: IC50 MMP-9
Sequence of Human MMP-9 (P14780 107-707 limits assumed): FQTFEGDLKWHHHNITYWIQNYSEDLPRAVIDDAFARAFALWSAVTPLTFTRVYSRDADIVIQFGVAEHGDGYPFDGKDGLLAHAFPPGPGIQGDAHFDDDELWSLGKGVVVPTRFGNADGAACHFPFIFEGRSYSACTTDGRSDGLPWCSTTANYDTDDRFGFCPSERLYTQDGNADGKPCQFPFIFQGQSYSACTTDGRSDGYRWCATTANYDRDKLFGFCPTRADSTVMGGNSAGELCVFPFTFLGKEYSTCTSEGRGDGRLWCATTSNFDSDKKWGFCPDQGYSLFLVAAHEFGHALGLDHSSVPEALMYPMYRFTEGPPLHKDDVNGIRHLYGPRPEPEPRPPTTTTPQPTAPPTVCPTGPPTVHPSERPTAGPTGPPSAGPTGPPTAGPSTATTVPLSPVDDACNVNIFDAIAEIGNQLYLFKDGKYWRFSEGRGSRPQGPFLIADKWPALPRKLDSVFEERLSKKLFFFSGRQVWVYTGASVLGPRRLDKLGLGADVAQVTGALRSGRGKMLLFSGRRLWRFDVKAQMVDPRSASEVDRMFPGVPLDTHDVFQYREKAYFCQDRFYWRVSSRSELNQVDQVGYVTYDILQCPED
Procedure: (§2) IC50 values are measured by an in vitro assay for MMP enzymatic activity. Such an assay is described by Stack, M. S., and Gray, R. D., J. Biol. Chem. 264 (1989) 4277-4281. This assay is based on the determination of MMP enzymatic activity on a dinitrophenol substrate and fluorescence measurement of the substrate after cleaving by MMPs.
(§3) Inhibitors were tested in a modified fluorescence-assay as described by Stack, M. S., and Gray, R. D., J. Biol. Chem. 264 (1989) 4277-4281. Human MMP-1, MMP-2, MMP-3, MMP-9 and MMP-14 are commercially available (e.g. Calbiochem). The pro-enzymes were activated with 1 mM APMA (incubation for 30 min at 37° C.) immediately before testing. Activated enzyme is diluted to 100 ng/ml in incubation buffer (50 mM Tris, 100 mM NaCl, 10 mM CaCl2, pH 7.6). The compounds were dissolved in 100% DMSO. […] DNP-substrate (Bachem M1855, 255 μM) was dissolved in incubation buffer.
(§4) The test tube contains 970 μl incubation buffer, 10 μl inhibitor solution and 10 μl enzyme solution. The reaction was started by adding the 10 μl substrate solution.
(§5) Kinetics of activity were determined using excitation at 280 nm and emission at 346 nm measured on a FluoroMax™ (Spex Industries Inc., Edison, N.J., USA) over 120 sec. DMSO has been used as control instead of inhibitor solution.
(§6) IC50's are defined as the concentration of inhibitor that gives a signal that is 50% of the positive enzyme control.

Human MMP-14 = Human MMP-14 (Homo sapiens, UniProt P50281); test: as above; type: biochemical; conditions: read-out: IC50 MMP-14
Procedure: as §2, §3, §4, §5, §6

| IC50 (Human MMP-9) | IC50 (Human MMP-14) | Compound | peribronchial inflammation score ([1]; p<0.0001) | BAL eosinophilia ([1]; p<0.001) | tissue eosinophil infiltration score ([1]; p<0.01) | eosinophilic inflammation in BAL [2] |
| --- | --- | --- | --- | --- | --- | --- |
|  |  | CCC(=O)O[C@]1(C(=O)SCF)[C@H](C)C[C@H]2[C@@H]3C[C@H](F)C4=CC(=O)C=C[C@]4(C)[C@@]3(F)[C@@H](O)C[C@@]21C | significantly decreased | significantly decreased | decreased | significant decrease |
| 23 nM | 19 nM | CNC(=O)[C@H](Cc1ccccc1)NC(=O)[C@H](CC(C)C)[C@H](CSc1cccs1)C(=O)NO [Batimastat, reference compound] |  |  |  |  |

Source: patent publication US20070225253A1, “Use of a trioxopyrimidine for the treatment and prevention of bronchial inflammatory diseases” (priority 2004, published 2007)
